Test results taken from patent US20080261932A1, “METHODS AND COMPOSITIONS FOR THE PREVENTION AND/OR TREATMENT OF AN EX[…] ASTHMA” (Chiesi Farmaceutici S.p.A., priority 2007, published 2008).

Assay: Tolerability of high, cumulative doses in asthmatic patients on maintenance treatment with the combination (double blind clinical comparison study)
Details: 10 puffs cumulative dose in addition to morning maintenance dose (2 puffs), assessed over 12 hours after dosing, vs placebo / comparator
Description: A study is performed to evaluate the tolerability of high, cumulative doses of the combination formoterol/beclometasone dipropionate or formoterol compared to a placebo when administered in asthmatic patients on regular treatment with the combination at the maximum recommended daily dose (6 microgram of formoterol/100 microgram beclometasone dipropionate, 2 puffs bid.: corresponding to a total daily dose of 24 microgram of formoterol and of 400 microgram of beclometasone dipropionate). The study is a double blind clinical comparison study of ten puffs of the pressurized metered dose inhaler solution formulation of the combination of Example 1 (formoterol 6 microgram+beclometasone dipropionate 100 microgram) or formoterol (6 microgram) or placebo during the maintenance treatment of asthma with 2 puffs bid. of the combination formoterol/beclometasone dipropionate of Example 1.
Cumulative doses (10 puffs) are administered on 3 separated days in addition to the morning dose maintenance (2 puffs). The primary endpoint is serum potassium, assessed over a 12 hours period after the cumulative doses.

With `COc1ccc(CC(C)NCC(O)c2ccc(O)c(NC=O)c2)cc1` (racemic) [Formoterol, (±) N-[2-hydroxy-5-(1-hydroxy-2-((2-(4-methoxyphenyl)-1-methylethyl)amino)ethyl)phenyl]formamide] as the compound, how does the serum potassium level read?
Its serum potassium level is “significantly greater decrease in serum potassium level than the combination or placebo”.

And the serum potassium level (listed as formoterol)?
The serum potassium level was “significantly greater decrease in serum potassium level than the either the combination or the placebo”.
